These results are taken from patent US12246022B2, “Compositions and methods for treating, preventing or reversing age associated inflammation and disorders” (BROWN UNIVERSITY, priority 2019, dated 2025).

“And” between values parts separate entries of the source, which are not always exact repeats. Identical values can stand only once. Like-named read-outs stand apart in the source and are kept apart here.

Series [1] is classed as in vivo. As to conditions: mice, 1.5, 2.0, 2.5 mg/ml in drinking water from 18 to 24 months. Here is the method:
(§1) C57BL/6J mice of both sexes were obtained from the NIA Aged Rodent Colonies^61 at 5 and 18 months of age. The 5-month old animals were sacrificed after a short (1 week) acclimatization period, a variety of tissues were harvested, snap frozen in LN2 and stored at −80° C. The 18-month old animals were housed until they reached a desired age. Mice were housed in a specific pathogen-free AAALAC-certified barrier facility. Cages, bedding (Sani-chip hardwood bedding) and food (Purina Lab Chow 5010) were sterilized by autoclaving. Food and water (also sterilized) were provided ad libitum. A light-dark cycle of 12 hours was used (7 AM On, 7 PM Off). Temperature was maintained at 70° F., and humidity at 50%. All animals were observed daily and weighed once per week. In a pilot experiment, three cohorts of 10 animals each were treated with 3TC dissolved in drinking water (1.5 mg/ml, 2.0 mg/ml, 2.5 mg/ml) continuously from 18 months until sacrifice at 24 months. The fourth (control) cohort was provided with the same water without drug. […] Once during the experiment (at 20 months of age) the animals were subjected to a single tail bleed of approximately 70 μL. The collected plasma was shipped to the University of North Carolina CFAR Clinical Pharmacology and Analytical Chemistry Core for analysis of 3TC. For the 2 mg/mL cohort the concentration of 3TC in plasma averaged 7.2 μM. […]

The test system of series [2] is L1, p16, IFN-I and SASP gene expression. Nature of the series: RT-qPCR of L1, p16, IFN-I and SASP genes in mouse tissues after drug in drinking water. It is filed as in vivo. The following applies: for IFNA Individual Foldchanges / IL6 Individual Foldchanges / IRF7 Individual Foldchanges / L1 Individual Foldchanges / MMP3 Individual Foldchanges / OAS1 Individual Foldchanges / PAI Individual Foldchanges / p16 Individual Foldchanges: one animal per line, listed as 3TC; for IFNA Age-group Foldchanges / IL6 Age-group Foldchanges / IRF7 Age-group Foldchanges / L1 Age-group Foldchanges / MMP3 Age-group Foldchanges / OAS1 Age-group Foldchanges / PAI Age-group Foldchanges / p16 Age-group Foldchanges: relative to 05 mo-WT. On the technique in general: Real-time PCR tracks product formation cycle by cycle.
Experimental: C57BL/6J mice of both sexes were obtained from the NIA Aged Rodent Colonies^61 at 5 and 18 months of age. The 5-month old animals were sacrificed after a short (1 week) acclimatization period, a variety of tissues were harvested, snap frozen in LN2 and stored at −80° C. The 18-month old animals were housed until they reached a desired age. Mice were housed in a specific pathogen-free AAALAC-certified barrier facility. Cages, bedding (Sani-chip hardwood bedding) and food (Purina Lab Chow 5010) were sterilized by autoclaving. Food and water (also sterilized) were provided ad libitum. A light-dark cycle of 12 hours was used (7 AM On, 7 PM Off). Temperature was maintained at 70° F., and humidity at 50%. All animals were observed daily and weighed once per week. In a pilot experiment, three cohorts of 10 animals each were treated with 3TC dissolved in drinking water (1.5 mg/ml, 2.0 mg/ml, 2.5 mg/ml) continuously from 18 months until sacrifice at 24 months. The fourth (control) cohort was provided with the same water without drug. […] Once during the experiment (at 20 months of age) the animals were subjected to a single tail bleed of approximately 70 μL. […] They were then assigned randomly to two cohorts by a technician that was blinded to the appearance or other characteristics of the animals. One cohort was treated for 2 weeks with 2 mg/mL of 3TC in drinking water, and the other (control) cohort with same water without drug, administered in the same manner. At the end of the treatment period all animals were sacrificed and harvested for tissues as described above. All the animals in both cohorts were all included in all subsequent analyses. The experiment was performed on separate occasions with male and female animals.
Reverse transcription qPCR (RT-qPCR) of RNA was performed using the SYBR Green system (Applied Biosystems). Polyadenylated RNA was used in all experiments assessing transcription of L1 elements, and total RNA was used for all other genes. Total RNA was harvested using the Trizol reagent (Invitrogen). Poly(A) RNA was isolated from total RNA using the NEBNext Poly(A) mRNA Magnetic Isolation Module (New England Biolabs). 1 μg of total RNA, or 10 ng of poly(A) RNA, were reverse-transcribed into cDNA in 50 μL reactions using the TaqMan kit (Applied Biosystems). To assess strand-specific transcription, the random primers in the RT reaction were substituted with a strand-specific primer to the target RNA. 1 μL of each RT reaction was used in subsequent qPCR reactions. […] The arithmetic mean of Gapdh and two additional controls (Hsp90 and GusB) was used for normalization of RT-qPCR experiments with murine tissues, with the exception of liver that was normalized to Hsp90 and GusB. For measuring L1 transcription, poly(A) RNA samples were exhaustively digested with RNase-free DNase (Qiagen) prior to the synthesis of cDNA6. Effectiveness of the DNase digestion was assessed using controls that omitted the RT enzyme.

The conditions of series [3]: 300 mg per day; cited from earlier work.
Series [4] in a line: 3TC concentration in mouse plasma. As to conditions: both sexes, C57BL/6J, oral, mice, 2 mg/mL in drinking water cohort, tail bleed at 20 months of age. Format: in vivo. As to the method: as §1
A further series deals with mouse LINE-1. Description: Mouse LINE-1 retrotransposition assay (dual luciferase pYX016 reporter, HeLa cells). It is filed as cell-based. As to the method: Elvucitabine was obtained by custom synthesis. […] HeLa cervical cancer cells were cultivated at 37° C. in a humidified 5% CO2 incubator in Dulbecco's Modified Eagle's Medium (DMEM)-high glucose, with 4500 mg/L glucose, L-glutamine, sodium pyruvate and sodium bicarbonate (Sigma), supplemented with 10% of heat inactivated fetal bovine serum (Thermo Fisher). Assays were performed as described in Xie et al., 2011^151 with several modifications. The reporter assay was performed in 96 well white Optical bottom plates. 6000 HeLa cells were seeded in each well 24 hours prior transfection and compound treatment. All compounds were resuspended in DMSO. Stock solution concentrations varied from 50 mM to 1.25 mM depending of the solubility of the compound. Serial dilutions (1:3) were prepared in DMSO. Ten different concentrations of each compound were tested in triplicate. Medium containing different concentrations of the compounds were prepared by adding 2 μL of the compound dilution to 1 mL of the culture medium. The final concentration of DMSO in the medium was 0.2%. FuGENE® HD transfection reagent (Promega) was used to transfect the plasmid pYX016 into the cells. The transfection mix was prepared in OpiMEM (Thermo Fisher) using a reagent to DNA ratio of 3.5:1 according to manufacturer's instructions. Culture medium was removed from the cells and discarded. The transfection mix (5 μL) was mixed with the compound containing medium (100 μL/well) and this was added onto the cells of each well. Cells were incubated for 48H at 37° C./5% CO2. Luciferase reporter activity was quantified with the Dual-Luciferase® Reporter Assay System (Promega) according to manufacturer's instructions for multiwell plates with the following modification: Cells were lysed directly on the multiwell plate with 30 μL of the passive lysis buffer (PLB) for 20 min at room temperature, with gentle shaking to ensure complete cell lysis (instead of 20 μL of PLB for 15 min). Firefly and Renilla luciferase signals were measured using a SpectraMax i3x Multi-Mode Microplate Reader. […] Relative L1 activity was calculated as Firefly/Renilla *10,000. […] The experiment was performed twice, independently.

Where [5] appears, read: pYX016, 48 H post-transfection, read-out: Mouse L1 activity inhibition IC50, Exp. 1.
[6] abbreviates: pYX016, 48 H post-transfection, read-out: Mouse L1 activity inhibition IC50, Exp. 2.
The mark [7] stands for this setting: pYX016, 48 H, n = 2, read-out: Mouse L1 activity inhibition IC50, Average.

One may read the IC50 as the concentration that inhibits the measured activity by half. For `Nc1ccn([C@@H]2CS[C@H](CO)O2)c(=O)n1` [Lamivudine], the “behavior, weight, or survival versus control cohort” value in series [1] is recorded as “No significant differences in behavior, weight, or survival”. In addition, in series [2] (05 mo mice + 3TC), the “IFNA Individual Foldchanges” value was 1.821 and 2.748 and 2.909 and 0.645 and 0.465 and 0.346; the “IL6 Individual Foldchanges” value was 1.455 and 0.924 and 5.604 and 1.622 and 1.920 and 0.751; the “IRF7 Individual Foldchanges” value is 1.040 and 1.153 and 1.132 and 0.684 and 0.565 and 0.960; the “L1 Individual Foldchanges” value is 1.458 and 1.464 and 0.484 and 1.829 and 2.537 and 0.747. Also, in series [2] (05 mo mice + 3TC), the “MMP3 Individual Foldchanges” value was 1.587 and 0.601 and 1.946 and 0.711 and 0.635 and 0.476; the “OAS1 Individual Foldchanges” value was 2.867 and 1.521 and 6.031 and 1.317 and 0.037 and 1.603; the “PAI Individual Foldchanges” value is 2.291 and 0.842 and 2.212 and 1.683 and 0.180 and 0.380; the “p16 Individual Foldchanges” value was 2.881 and 0.457 and 0.957 and 0.270 and 0.104 and 0.541. Further, in series [2] (05 mo mice + 3TC), the “IFNA Age-group Foldchanges” value was 1.489, the “IL6 Age-group Foldchanges” value is 2.046, the “IRF7 Age-group Foldchanges” value came out at 0.922 and the “L1 Age-group Foldchanges” value was found to be 1.420. For the same molecule, in series [2] (05 mo mice + 3TC), the “MMP3 Age-group Foldchanges” value worked out at 0.993, the “OAS1 Age-group Foldchanges” value is 2.229, the “PAI Age-group Foldchanges” value is on record as 1.265 and the “p16 Age-group Foldchanges” value amounted to 0.868. For the same molecule, in series [2] (26 mo mice + 3TC), the “IFNA Individual Foldchanges” value is 10.115 and 2.941 and 4.156 and 1.283 and 1.601 and 8.335 and 19.836 and 3.982 and 6.531 and 8.332 and 5.514 and 6.321; the “IL6 Individual Foldchanges” value is 1.116 and 1.553 and 2.194 and 0.686 and 1.395 and 1.291 and 8.067 and 0.654 and 2.119 and 3.177 and 1.148 and 4.866; the “IRF7 Individual Foldchanges” value is 0.540 and 0.506 and 0.498 and 0.424 and 0.954 and 3.302 and 0.993 and 1.155 and 0.950 and 1.866; the “L1 Individual Foldchanges” value is 2.819 and 2.160 and 2.053 and 1.491 and 6.524 and 2.863 and 7.191 and 5.433 and 3.817 and 4.409 and 5.864 and 2.745. Moreover, in series [2] (26 mo mice + 3TC), the “MMP3 Individual Foldchanges” value is 1.044 and 0.972 and 1.618 and 1.650 and 1.033 and 1.166 and 4.484 and 0.374 and 1.543 and 3.656 and 1.964 and 1.637; the “OAS1 Individual Foldchanges” value was 1.658 and 0.643 and 0.055 and 0.482 and 1.094 and 0.695 and 7.091 and 3.841 and 1.945 and 0.636 and 0.565 and 1.469; the “PAI Individual Foldchanges” value was 1.034 and 1.056 and 2.696 and 0.493 and 1.562 and 1.675 and 2.347 and 0.529 and 0.747 and 8.508 and 6.112 and 7.313; the “p16 Individual Foldchanges” value is 2.290 and 3.653 and 1.731 and 1.168 and 0.844 and 1.243 and 3.690 and 2.458 and 2.135 and 4.053 and 1.969 and 1.326. In series [2] (26 mo mice + 3TC), the “IFNA Age-group Foldchanges” value came to 6.579, the “IL6 Age-group Foldchanges” value turned out to be 2.355, the “IRF7 Age-group Foldchanges” value came out at 1.076 and the “L1 Age-group Foldchanges” value amounted to 3.947. For the same molecule, in series [2] (26 mo mice + 3TC), the “MMP3 Age-group Foldchanges” value is 1.762, the “OAS1 Age-group Foldchanges” value was determined as 1.681, the “PAI Age-group Foldchanges” value stood at 2.839 and the “p16 Age-group Foldchanges” value is on record as 2.213. In addition, in series [3], the “3TC in plasma at human HIV therapeutic dose” value was 5 to 8 µM. The concentration at 2 months of continuous dosing (sampled at 20 months of age) in series [4] is 7.2 µM. In addition, in the series on mouse LINE-1 (setting [5]), the IC50 came to 958 nM. Also, the IC50 in the series with mouse LINE-1 (setting [6]) was determined as 780 nM. The concentration for half-maximal inhibition (IC50) in the series on mouse LINE-1 (setting [7]) was determined as 869 nM.
For the molecule `Nc1nc(=O)n([C@@H]2CS[C@H](CO)O2)cc1F` [Emtricitabine], the half-maximal inhibitory concentration (IC50) came to 640 nM in the series on mouse LINE-1 (setting [5]), 451 nM with mouse LINE-1 (setting [6]) and 546 nM in the series with mouse LINE-1 (setting [7]).
